Source: patent US20180267043A1, “USE OF BIOMARKERS FOR PREDICTING CLINICAL SENSITIVITY TO CANCER TREATMENT” (CELGENE CORPORATION, priority 2014, published 2018)

What was measured:
[1] = system: human CRBN isoform 2 (IKZF1/3, GSPT1/2 as substrates); assay: Substrate degradation in CRBN−/− cells expressing human CRBN isoform 2 or mutants; format: cell-based; details: CRBN−/− cells without human CRBN; 10 μM lenalidomide or 1 μM Compound C
Text: (§1) They were co-expressed together with GFP in CRBN −/− cells. These cells also expressed human CRBN isoform 2, or various specific mutants (hCRBNiso2 E376V, hCRBNiso2 V387I, or hCRBNiso2 W385A) by transfection with corresponding DNA.

[2] = target: T1, human CRBN isoform 2 (IKZF1/3, GSPT1/2 as substrates) (Homo sapiens, UniProt Q96SW2, V388I); assay: as above; format: cell-based; details: hCRBNiso2 V387I; 1 μM Compound C
T1 construct: expressed in transfected cells; host or cells: CRBN-/- cells (elsewhere: 293FT, CRISPR)
Text: as §1

[3] = target: T2, human CRBN isoform 2 (IKZF1/3, GSPT1/2 as substrates) (Homo sapiens, UniProt Q96SW2); assay: as above; format: cell-based; details: cells expressing human CRBN isoform 2
T2 construct: expressed in transfected cells; host or cells: CRBN-/- cells (elsewhere: 293FT, CRISPR)
Text: as §1

[4] = system: CRBN and its substrates IKZF1, GSPT1, GSPT2; assay: In vitro binding assay, anti-HA immunoprecipitation and immunoblotting; details: cell lysates
Protocol: CRBN−/− cells expressing HA-tagged substrates were lysed and incubated with anti-HA antibody to pull down substrates. CRBN positive cells expressing shGSPT1 that specifically knocks down GSPT1 were lysed, then mixed with the substrates obtained from CRBN−/− cells. The mixture was incubated with DMSO alone or compounds. Immunoprecipitation using anti-HA antibody was performed. Then, immunoblotting was performed using anti-CRBN or anti-HA antibodies.

[5] = system: GSPT1/eRF3a, GSPT2/eRF3b, and HBS1L/eRF3c; assay: Immunoblotting of CRBN/Compound C substrates in 293 HEK cells; format: cell-based, human; details: 8 hours
Protocol: Immunblotting analysis was performed to confirm GSPT1/eRF3a, GSPT2/eRF3b, and HBS1L/eRF3c as authentic substrates of the CRBN/Compound C complex. 293 HEK cells transiently transfected with HA-tagged HBS1L or FLAG-tagged GSPT2 were treated with Compound at the indicated concentrations for 8 hours.

[6] = system: PERK pathway of UPR; assay: RNA level of PERK pathway components in 293FT HEK cells; format: cell-based, human; details: parental and control shRNA cells, 1 nM or 10 nM, 24 hours
Protocol: The mechanism of Compound C-induced Unfolded Protein Response (UPR) was studied in 293FT HEK cells. Parental cells, CRBN−/− cells, cells expressing control shRNA, or cells expressing GSPT1-specific shRNA were treated with DMSO, 1 nM, or 10 nM Compound C. The RNA level of variant cellular components along the PERK pathway of UPR was measured and normalized with GAPDH at 24 hours after treatment.

[7] = system: PERK/EIF2a/ATF4 pathway; assay: mRNA level of PERK/EIF2a/ATF4 pathway components in KG1 cells; format: cell-based, human; details: KG1 cells (FIG. 18C)
[8] = system: KG1, DF15, AML3, and 293FT; assay: Sensitivity to compound-induced ER stress and apoptosis, KG1, DF15, AML3, 293FT; format: cell-based, human
Protocol: The GSPT1 dependency was shown by GSPT1-specific shRNA knockdown experiment. The GSPT1 degradation efficiency was shown by Western Blot. The induction of ATF3 or DDIT3 was measured by quantitative RT-PCR. […] Time needed for Compound C-induced ER stress or Compound C-induced apoptosis was summarized. […] High ER demand may contribute to the sensitivity of certain cancer cells to the treatment of Compound C.

[9] = system: HEK 293FT cells; assay: CellTiter-Glo cell viability assay, HEK 293FT cells with GSPT1 shRNA; format: cell-based, human
Protocol: The effect of depletion of GSPT1 on Compound C-induced anti-proliferation was examined in HEK 293FT cells. Cells were infected with either expression vector alone, or vector containing control shRNA or GSPT1-specific shRNA. The cells were then treated with Compound C at different concentrations. Cell proliferation was measured by the CellTiter-Glo cell viability assay (RLU-Relative Luminescent Unit).

[10] = system: U937; assay: CellTiter-Glo cell viability assay, U937; format: cell-based, human; details: 48 hours
Protocol: The effect of overexpression of GSPT1 on the anti-proliferative effect of Compound C was determined in human histiocytic lymphoma cell line U937 and human leukemia cell line Molm13. Treatment compounds were titrated from 0.1 nM to 1 μM. Cell proliferation was measured by CellTiter-Glo cell viability assay at 48 hours after treatment.

[11] = system: HEK 293FT cells; assay: CellTiter-Glo cell viability assay, HEK 293FT cells with GSPT1 overexpression; format: cell-based, human
Protocol: The effect of overexpression of GSPT1 on Compound C-induced growth inhibition was tested in HEK 293FT cells. 293 cells stably expressing GSPT1 driven by three different promoters were generated. To these cells, Compound C was added at concentration of 0, 1 nM, 10 nM, 100 nM, or 1000 nM. Cell proliferation was measured by CellTiter-Glo cell viability assay (RLU-Relative Luminescent Unit) at day 2. […] The expression level of GSPT1 was measured at 10 hours after compound treatment in the right part of FIG. 7. […] Thus, overexpression of GSPT1 confers Compound C resistance to HEK 293FT cells.

[12] = system: PERK/EIF2a/ATF4 pathway; assay: mRNA expression of PERK/EIF2a/ATF4 pathway components in DF15 MM cells; format: cell-based, human; details: 20 nM
Protocol: Cells were treated with DMSO alone or 20 nM Compound C. After 5 or 10 hours, the expression level of various cellular components along UPR or apoptosis pathways was measured. […] Loss of BIP immunoreactivity indicates an induction of UPR.

[13] = system: GSPT1, UPR or apoptosis pathways; assay: Protein level of UPR and apoptosis components in KG1 cells; format: cell-based, human
Protocol: Cells were treated with DMSO alone or 20 nM Compound C. The expression levels of various cellular components along UPR or apoptosis pathways were measured at various time points post treatment.

T2 sequence (Q96SW2 1-441 isoform Q96SW2-2): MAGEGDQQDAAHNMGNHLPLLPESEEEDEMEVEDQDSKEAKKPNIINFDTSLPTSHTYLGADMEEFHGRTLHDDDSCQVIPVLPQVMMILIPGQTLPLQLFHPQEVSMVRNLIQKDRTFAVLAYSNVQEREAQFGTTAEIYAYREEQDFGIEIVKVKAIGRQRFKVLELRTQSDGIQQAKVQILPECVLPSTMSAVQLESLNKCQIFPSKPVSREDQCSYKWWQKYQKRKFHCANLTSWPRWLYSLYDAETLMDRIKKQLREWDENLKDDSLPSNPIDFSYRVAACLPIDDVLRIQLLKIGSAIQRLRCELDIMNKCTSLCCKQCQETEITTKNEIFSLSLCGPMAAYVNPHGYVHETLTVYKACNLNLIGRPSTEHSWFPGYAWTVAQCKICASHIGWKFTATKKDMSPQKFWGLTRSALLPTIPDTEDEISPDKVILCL
T2 sequence (Q16531 whole entry partner, canonical isoform): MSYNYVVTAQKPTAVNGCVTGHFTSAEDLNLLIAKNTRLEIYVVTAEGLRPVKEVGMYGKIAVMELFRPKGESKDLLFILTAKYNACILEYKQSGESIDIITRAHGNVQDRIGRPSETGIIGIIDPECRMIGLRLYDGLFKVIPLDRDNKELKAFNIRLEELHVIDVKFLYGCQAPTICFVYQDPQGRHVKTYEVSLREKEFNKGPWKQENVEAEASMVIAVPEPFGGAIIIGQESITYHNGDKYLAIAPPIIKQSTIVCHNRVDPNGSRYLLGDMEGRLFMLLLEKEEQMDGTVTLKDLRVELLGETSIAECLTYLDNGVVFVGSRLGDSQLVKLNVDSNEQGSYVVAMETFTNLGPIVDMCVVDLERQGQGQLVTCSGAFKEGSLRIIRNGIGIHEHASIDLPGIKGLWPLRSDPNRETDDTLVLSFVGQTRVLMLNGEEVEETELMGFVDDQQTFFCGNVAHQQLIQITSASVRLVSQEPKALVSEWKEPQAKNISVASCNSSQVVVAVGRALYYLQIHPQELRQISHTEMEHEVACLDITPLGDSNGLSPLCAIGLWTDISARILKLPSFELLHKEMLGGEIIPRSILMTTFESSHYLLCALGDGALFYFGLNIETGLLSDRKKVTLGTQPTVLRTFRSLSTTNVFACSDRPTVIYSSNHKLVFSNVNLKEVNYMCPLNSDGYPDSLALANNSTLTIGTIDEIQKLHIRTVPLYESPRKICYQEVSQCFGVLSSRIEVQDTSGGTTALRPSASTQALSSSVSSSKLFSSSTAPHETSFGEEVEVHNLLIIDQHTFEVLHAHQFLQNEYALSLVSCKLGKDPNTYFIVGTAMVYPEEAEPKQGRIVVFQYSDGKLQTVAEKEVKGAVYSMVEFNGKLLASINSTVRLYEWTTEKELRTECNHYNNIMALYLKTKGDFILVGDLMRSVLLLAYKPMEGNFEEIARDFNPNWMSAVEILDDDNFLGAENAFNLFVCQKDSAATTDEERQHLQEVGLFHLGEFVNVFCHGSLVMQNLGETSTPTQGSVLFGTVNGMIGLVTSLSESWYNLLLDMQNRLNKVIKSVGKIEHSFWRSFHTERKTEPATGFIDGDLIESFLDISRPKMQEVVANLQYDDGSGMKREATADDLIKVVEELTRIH
T1 sequence (Q96SW2 1-441 isoform Q96SW2-2 V387I): as the sequence (Q96SW2 1-441 isoform Q96SW2-2) above, with V387I counted along it
T1 sequence (Q16531 whole entry partner, canonical isoform): as the sequence (Q16531 whole entry partner, canonical isoform) above

Compound: Cc1ccc(NC(=O)NCc2ccc3c(c2)CN(C2CCC(=O)NC2=O)C3=O)cc1Cl (stereo not drawn) [Compound C, 1-(3-chloro-4-methylphenyl)-3-((2-(2,6-dioxopiperidin-3-yl)-1-oxoisoindolin-5-yl)methyl)urea]
- Degradation of tested substrates (IKZF1/3, GSPT1/2) [1]: neither compound triggers degradation of any tested substrate
- Degradation of IKZF1/3 [2]: abolishes Compound C-induced degradation of IKZF1/3
- Destruction of GSPT1/2 ([3]; 1 μM Compound C): induces destruction of IKZF1/3 and GSPT1/2
- Destruction of IKZF1/3 ([3]; 10 μM lenalidomide or 1 μM Compound C): induces destruction of IKZF1/3 and GSPT1/2
- Interaction between CRBN and GSPT1 or GSPT2 [4]: promotes the interaction
- Interaction between CRBN and IKZF1 [4]: promotes the interaction
- Binding partners of CRBN induced by compound binding [5]: GSPT1/eRF3a, GSPT2/eRF3b, and HBS1L/eRF3c are binding partners of CRBN induced by Compound C binding
- Degradation of GSPT1/eRF3a, GSPT2/eRF3b, and HBS1L/eRF3c ([5]; increased concentration): induces degradation
- RNA level of ATF4, ATF3, DDIT3, PPP1R15A, and GADD45A normalized with GAPDH [6]: induces expression of ATF4, ATF3, DDIT3, PPP1R15A, and GADD45A
- mRNA level of ATF4, ATF3, DDIT3, PPP1R15A, GADD45A, TNFRSF1B, and TNFRSF10B [7]: Compound C-induced expression of ATF4, ATF3, DDIT3, PPP1R15A, GADD45A, TNFRSF1B, and TNFRSF10B
- Sensitivity to the compound ([8]; KG1, DF15, AML3, and 293FT): exhibit different levels of sensitivity to Compound C
- Order in time of compound-induced ER stress and apoptosis ([8]; cancer cell lines of FIG. 21): Compound C-induced ER stress precedes Compound C-induced apoptosis
- Cell proliferation ([9]; CRBN+/+ parental cells, expression vector alone, or control shRNA): show sensitivity to Compound C-induced anti-proliferation
- Cell proliferation ([9]; CRBN−/− cells): cannot inhibit cell proliferation
- Cell proliferation ([9]; GSPT1-specific shRNA knockdown): growth inhibition starting at even lower concentration of compound treatment
- Anti-proliferative effect ([10]; U937, exogenous GSPT1 overproduced via EF1a promoter): the anti-proliferative effect of Compound C reduces
- Anti-proliferative effect ([10]; U937 CRBN −/− cells): completely abolished
- Cell proliferation ([10]; U937 parental cells, 0.1 nM to 1 μM): inhibits cell proliferation
- Cell proliferation (growth inhibition) ([11]; GSPT1 overexpression driven by different promoters, 0-1000 nM, day 2): confers various degrees of resistance to Compound C-induced growth inhibition
- Cell proliferation (compound resistance) ([11]; cells expressing CMV-GSPT1): exhibit the highest level of Compound C resistance
- Cell proliferation ([11]; parental cells, 0-1000 nM, day 2): inhibits cell proliferation in parental cells
- Expression of ATF4, ATF3, DDIT3, PPP1R15A, and GADD45A (FIG. 16C) [12]: Compound C-induced expression of ATF4, ATF3, DDIT3, PPP1R15A, and GADD45A
- Levels of Mcl-1 and pS112-BAD ([13]; KG1 (FIG. 18B)): decrease in response to Compound C treatment
- Levels of cleaved Caspase-8, BID, cleaved Caspase-9, cleaved Caspase-3, cleaved Caspase-7, and cleaved PARP ([13]; KG1 (FIG. 18B)): increase in response to Compound C treatment
- Degradation of GSPT1 ([13]; KG1, 20 nM): induced degradation of GSPT1
- Expression of ATF-4 and ATF-3 ([13]; KG1, 20 nM): increased the expression of ATF-4 and its downstream target ATF-3
- Levels of pEIF2α, DDIT3, cleaved Caspase-3, and cleaved PARP ([13]; KG1, 20 nM): also increased
